Laboratory results: patent US8772300B2, “Phenyl or pyridinyl-ethynyl derivatives” (Hoffmann-La Roche Inc., priority 2011, dated 2014)

Target: T1, human mGlu5a receptor (Homo sapiens, UniProt P41594)
T1 construct: expressed in transfected cells
Experiment: Intracellular Ca2+ mobilization assay (mGlu5 PAM)
Type: cell-based
Settings: for Emax: HEK293, maximal response in % of the maximal stimulatory effect obtained with saturating concentrations of L-glutamate, read-out: Eff. (%); for EC50: HEK-293 cells stably transfected with human mGlu5a receptor, L-glutamate added at EC20 (typically around 80 μM) after 10-30 min pre-incubation with test compound, read-out: EC50 (nM) mGlu5PAM
Procedure: A monoclonal HEK-293 cell line stably transfected with a cDNA encoding for the human mGlu5a receptor was generated; for the work with mGlu5 Positive Allosteric Modulators (PAMs), a cell line with low receptor expression levels and low constitutive receptor activity was selected to allow the differentiation of agonistic versus PAM activity. Cells were cultured according to standard protocols (Freshney, 2000) in Dulbecco's Modified Eagle Medium with high glucose supplemented with 1 mM glutamine, 10% (vol/vol) heat-inactivated bovine calf serum, Penicillin/Streptomycin, 50 μg/ml hygromycin and 15 μg/ml blasticidin (all cell culture reagents and antibiotics from Invitrogen, Basel, Switzerland).
About 24 hrs before an experiment, 5×10^4 cells/well were seeded in poly-D-lysine coated, black/clear-bottomed 96-well plates. The cells were loaded with 2.5 μM Fluo-4AM in loading buffer (1×HBSS, 20 mM HEPES) for 1 hr at 37° C. and washed five times with loading buffer. The cells were transferred into a Functional Drug Screening System 7000 (Hamamatsu, Paris, France), and 11 half logarithmic serial dilutions of test compound at 37° C. were added and the cells were incubated for 10-30 min with on-line recording of fluorescence. Following this pre-incubation step, the agonist L-glutamate was added to the cells at a concentration corresponding to EC20 (typically around 80 μM) with on-line recording of fluorescence; in order to account for day-to-day variations in the responsiveness of cells, the EC20 of glutamate was determined immediately ahead of each experiment by recording of a full dose-response curve of glutamate.
Responses were measured as peak increase in fluorescence minus basal (i.e. fluorescence without addition of L-glutamate), normalized to the maximal stimulatory effect obtained with saturating concentrations of L-glutamate. Graphs were plotted with the % maximal stimulatory using XLfit, a curve fitting program that iteratively plots the data using Levenburg Marquardt algorithm. The single site competition analysis equation used was y=A+((B−A)/(1+((x/C)D))), where y is the % maximal stimulatory effect, A is the minimum y, B is the maximum y, C is the EC50, x is the log 10 of the concentration of the competing compound and D is the slope of the curve (the Hill Coefficient). From these curves the EC50 (concentration at which half maximal stimulation was achieved), the Hill coefficient as well as the maximal response in % of the maximal stimulatory effect obtained with saturating concentrations of L-glutamate were calculated.
A depression of the signal observed after addition of the EC20 concentration of L-glutamate was indicative of an inhibitory activity of the test compound.

T1 sequence (P41594 21-1180 isoform P41594-2 limits assumed): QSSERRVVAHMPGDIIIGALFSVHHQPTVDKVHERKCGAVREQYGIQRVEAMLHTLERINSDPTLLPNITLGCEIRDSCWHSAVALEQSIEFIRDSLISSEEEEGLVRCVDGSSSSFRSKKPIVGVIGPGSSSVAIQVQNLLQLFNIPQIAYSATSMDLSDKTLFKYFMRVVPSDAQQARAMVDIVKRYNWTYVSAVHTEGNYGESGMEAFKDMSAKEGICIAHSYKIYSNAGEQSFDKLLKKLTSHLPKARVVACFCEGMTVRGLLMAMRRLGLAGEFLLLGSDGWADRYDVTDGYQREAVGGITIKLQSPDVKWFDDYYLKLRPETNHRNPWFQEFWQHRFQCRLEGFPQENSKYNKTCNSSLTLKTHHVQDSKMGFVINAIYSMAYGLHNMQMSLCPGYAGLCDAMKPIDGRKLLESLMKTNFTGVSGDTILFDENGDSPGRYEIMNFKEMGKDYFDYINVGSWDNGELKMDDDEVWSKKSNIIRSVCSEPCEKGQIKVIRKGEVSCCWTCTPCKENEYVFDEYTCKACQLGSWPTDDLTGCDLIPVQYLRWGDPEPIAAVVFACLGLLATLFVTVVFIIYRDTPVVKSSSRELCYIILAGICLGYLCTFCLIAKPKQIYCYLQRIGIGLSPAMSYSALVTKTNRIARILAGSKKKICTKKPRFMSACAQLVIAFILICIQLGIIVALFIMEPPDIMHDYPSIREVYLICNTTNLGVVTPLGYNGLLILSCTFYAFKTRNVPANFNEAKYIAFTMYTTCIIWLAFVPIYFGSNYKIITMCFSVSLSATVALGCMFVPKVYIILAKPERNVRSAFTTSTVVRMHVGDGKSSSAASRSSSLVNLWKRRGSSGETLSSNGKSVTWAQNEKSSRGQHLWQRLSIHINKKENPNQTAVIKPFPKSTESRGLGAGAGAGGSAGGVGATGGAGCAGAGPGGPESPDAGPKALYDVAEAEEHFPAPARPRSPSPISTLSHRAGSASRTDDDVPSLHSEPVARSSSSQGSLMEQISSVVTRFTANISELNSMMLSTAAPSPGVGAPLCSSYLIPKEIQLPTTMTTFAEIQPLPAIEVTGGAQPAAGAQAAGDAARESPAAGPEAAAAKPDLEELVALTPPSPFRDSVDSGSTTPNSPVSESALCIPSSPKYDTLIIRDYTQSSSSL

Structure (SMILES)	Emax (HEK-293 human mGlu5a cells) [%]	EC50 [nM]	Eff. (%) (maximal response in % of the maximal stimulatory effect obtained with saturating concentrations of L-glutamate, HEK-293 human mGlu5a cells)
CN(C(=O)c1ncc(C#Cc2cccc(F)c2)cn1)C1(C(F)(F)F)CC1 [Example 44, 5-(3-Fluoro-phenylethynyl)-pyrimidine-2-carboxylic Acid methyl-(1-trifluoromethyl-cyclopropyl)-amide]	68	42	–
Cc1cc(C#Cc2cc(F)ccc2F)cnc1C(=O)N(C)C(C)(C)C [Example 19, 5-(2,5-Difluoro-phenylethynyl)-3-methyl-pyridine-2-carboxylic Acid tert-butyl-methyl-amide]	29	33	–
CC1(C)CC(O)CCN1C(=O)c1ncc(C#Cc2cccc(F)c2)cn1 (racemic) [Example 65, (RS)-[5-(3-Fluoro-phenylethynyl)-pyrimidin-2-yl]-(4-hydroxy-2,2-dimethyl-piperidin-1-yl)-methanone]	55	149	–
CN(C(=O)c1ccc(C#Cc2cncc(Cl)c2)cn1)C(C)(C)C [Example 7, 5-(5-Chloro-pyridin-3-ylethynyl)-pyridine-2-carboxylic Acid tert-butyl-methyl-amide]	33	17	–
CC(C)(C)NC(=O)c1ncc(C#Cc2ccc(F)cc2)cn1 [Example 9, 5-(4-Fluoro-phenylethynyl)-pyrimidine-2-carboxylic Acid tert-butylamide]	90	127	–
CN(C(=O)c1ccc(C#Cc2cccc(Cl)c2)cn1)C(C)(C)C(F)(F)F [Example 56, 5-(3-Chloro-phenylethynyl)-pyridine-2-carboxylic Acid methyl-(2,2,2-trifluoro-1,1-dimethyl-ethyl)-amide]	29	22	–
CN(C(=O)c1ncc(C#Cc2ccc(F)cc2)cc1F)C(C)(C)C [Example 22, 3-Fluoro-5-(4-fluoro-phenylethynyl)-pyridine-2-carboxylic Acid tert-butyl-methyl-amide]	65	32	–
CC(NC(=O)c1ccc(C#Cc2ccnc(Cl)c2)cn1)C(F)(F)F (single isomer, unassigned) [Example 59, (R) or (S)-5-(2-Chloro-pyridin-4-ylethynyl)-pyridine-2-carboxylic Acid (2,2,2-trifluoro-1-methyl-ethyl)-amide]	47	27	–
CC1(C)CN(C(=O)c2ccc(C#Cc3ccc(F)cc3)cn2)CCC1O (racemic) [Example 40, (RS)-[5-(4-Fluoro-phenylethynyl)-pyridin-2-yl]-(4-hydroxy-3,3-dimethyl-piperidin-1-yl)-methanone]	37	93	–
CC1(C)CN(C(=O)c2ccc(C#Cc3cccc(F)c3)cn2)CCO1 [Example 35, (2,2-Dimethyl-morpholin-4-yl)-[5-(3-fluoro-phenylethynyl)-pyridin-2-yl]-methanone]	57	46	–
CC1(C)CN(C(=O)c2ncc(C#Cc3cccc(F)c3)cn2)CCC1O (racemic) [Example 49, (RS)-[5-(3-Fluoro-phenylethynyl)-pyrimidin-2-yl]-(4-hydroxy-3,3-dimethyl-piperidin-1-yl)-methanone]	48	98	–
Cc1cc(C#Cc2cccc(F)c2)cnc1C(=O)N(C)C(C)(C)C [Example 17, 5-(3-Fluoro-phenylethynyl)-3-methyl-pyridine-2-carboxylic Acid tert-butyl-methyl-amide]	49	37	–
CN(C(=O)c1ccc(C#Cc2cncc(Cl)c2)cn1)C1(C(F)(F)F)CC1 [Example 53, 5-(5-Chloro-pyridin-3-ylethynyl)-pyridine-2-carboxylic Acid methyl-(1-trifluoromethyl-cyclopropyl)-amide]	57	44	–
Cc1cccc(C#Cc2ccc(C(=O)N(C)C3(C(F)(F)F)CC3)nc2)c1 [Example 34, 5-m-Tolylethynyl-pyridine-2-carboxylic Acid methyl-(1-trifluoromethyl-cyclopropyl)-amide]	46	27	–
CN(C(=O)c1ccc(C#Cc2cccc(F)c2)cn1)C(C)(C)C [Example 3, 5-(3-Fluoro-phenylethynyl)-pyridine-2-carboxylic Acid tert-butyl-methyl-amide]	64	16	–
CC(C)(NC(=O)c1ccc(C#Cc2ccnc(Cl)c2)cn1)C(F)(F)F [Example 54, 5-(2-Chloro-pyridin-4-ylethynyl)-pyridine-2-carboxylic Acid (2,2,2-trifluoro-1,1-dimethyl-ethyl)-amide]	80	37	–
CN(C(=O)c1ncc(C#Cc2cncc(Cl)c2)cn1)C(C)(C)C [Example 16, 5-(5-Chloro-pyridin-3-ylethynyl)-pyrimidine-2-carboxylic Acid tert-butyl-methyl-amide]	27	58	–
CC1(O)CCN(C(=O)c2ccc(C#Cc3cccc(F)c3)cn2)CC1 [Example 37, [5-(3-Fluoro-phenylethynyl)-pyridin-2-yl]-(4-hydroxy-4-methyl-piperidin-1-yl)-methanone]	38	79	–
Cc1cc(C#Cc2ccc(F)cc2)cnc1C(=O)N(C)C(C)(C)C [Example 18, 5-(4-Fluoro-phenylethynyl)-3-methyl-pyridine-2-carboxylic Acid tert-butyl-methyl-amide]	71	76	–
CN(C(=O)c1ccc(C#Cc2cncc(Cl)c2)cn1)C(C)(C)C(F)(F)F [Example 55, 5-(5-Chloro-pyridin-3-ylethynyl)-pyridine-2-carboxylic Acid methyl-(2,2,2-trifluoro-1,1-dimethyl-ethyl)-amide]	63	37	–

Continued, values first:

Emax (HEK-293 human mGlu5a cells) [%]	EC50 [nM]	Eff. (%) (maximal response in % of the maximal stimulatory effect obtained with saturating concentrations of L-glutamate, HEK-293 human mGlu5a cells)	Structure (SMILES)
51	62	–	O=C(c1ncc(C#Cc2ccccc2)cn1)N1CC(F)(F)C1 [Example 45, (3,3-Difluoro-azetidin-1-yl)-(5-phenylethynyl-pyrimidin-2-yl)-methanone]
–	69	60	CC(NC(=O)c1ccc(C#Cc2ccnc(Cl)c2)cn1)C(F)(F)F (single isomer, unassigned) [Example 60, (S) or (R)-5-(2-Chloro-pyridin-4-ylethynyl)-pyridine-2-carboxylic Acid (2,2,2-trifluoro-1-methyl-ethyl)-amide]
26	102	–	Cc1cc(C#Cc2cncc(Cl)c2)cnc1C(=O)N(C)C(C)(C)C [Example 20, 5-(5-Chloro-pyridin-3-ylethynyl)-3-methyl-pyridine-2-carboxylic Acid tert-butyl-methyl-amide]
80	43	–	O=C(NC1COC1)c1ccc(C#Cc2cccc(F)c2)cn1 [Example 26, 5-(3-Fluoro-phenylethynyl)-pyridine-2-carboxylic Acid oxetan-3-ylamide]
32	35	–	CN(C(=O)c1ncc(C#Cc2cc(F)ccc2F)cn1)C(C)(C)C [Example 15, 5-(2,5-Difluoro-phenylethynyl)-pyrimidine-2-carboxylic Acid tert-butyl-methyl-amide]
57	66	–	CC1(C)CC(O)CCN1C(=O)c1ncc(C#Cc2ccccc2)cn1 (racemic) [Example 47, (RS)-(4-Hydroxy-2,2-dimethyl-piperidin-1-yl)-(5-phenylethynyl-pyrimidin-2-yl)-methanone]
42	12	–	CN(C(=O)c1ccc(C#Cc2cc(F)ccc2F)cn1)C(C)(C)C [Example 5, 5-(2,5-Difluoro-phenylethynyl)-pyridine-2-carboxylic Acid tert-butyl-methyl-amide]
83	71	–	Cc1cccc(C#Cc2cnc(C(=O)NC(C)(C)C)nc2)c1 [Example 13, 5-m-Tolylethynyl-pyrimidine-2-carboxylic Acid tert-butylamide]
115	49	–	CC(C)(C)NC(=O)c1ccc(C#Cc2ccccc2)cn1 [Example 1, 5-Phenylethynyl-pyridine-2-carboxylic Acid tert-butylamide]
56	32	–	CN(C(=O)c1ccc(C#Cc2cccc(F)c2)cn1)C1CCC1 [Example 25, 5-(3-Fluoro-phenylethynyl)-pyridine-2-carboxylic Acid cyclobutyl-methyl-amide]
